From ChEMBL document CHEMBL1141281, “Targeted natural product isolation guided by HPLC-SPE-NMR: constituents of Hubertia species” (2007) come the findings set out here.

Test [1] in a line: Inhibition of Cu2+ induced human LDL oxidation. Format: functional.
Test [2] relates to Bacillus subtilis. As to the kind of experiment: Antimicrobial activity against Bacillus subtilis ATCC 6633 after 24 hrs by MTT assay. Format: functional. The conditions noted are these: ATCC 6633, 24 h. (Formazan colour is commonly taken as a measure of viable cells.)
Test [3] relates to Staphylococcus aureus. Nature of the test: Antimicrobial activity against Staphylococcus aureus ATCC 6538 after 24 hrs by MTT assay. Type of test: functional. The following applies: ATCC 6538, 24 h.
Test [4] deals with Escherichia coli. Nature of the test: Antimicrobial activity against Escherichia coli ATCC 11229 after 24 hrs by MTT assay. Type of test: functional. The conditions noted are these: ATCC 11229, 24 h.
The test system of test [5] is Escherichia coli. Nature of the test: Antimicrobial activity against Escherichia coli ATCC 11229 at 500 ug/mL after 24 hrs by MTT assay. Format: functional, organism-based.
The subject of test [6] is Staphylococcus aureus. As to the kind of experiment: Antimicrobial activity against Staphylococcus aureus ATCC 6538 at 500 ug/mL after 24 hrs by MTT assay. Type of test: functional, organism-based.
Test [7] deals with Bacillus subtilis. Nature of the test: Antimicrobial activity against Bacillus subtilis ATCC 6633 at 500 ug/mL after 24 hrs by MTT assay. Type of test: functional, organism-based.

Structures are written as SMILES. ≈ marks a conversion by molar mass, not a printed value. Calls of active or inactive are those of the source. No cut-off for these calls is given here.

In the case of `O=C(/C=C/c1ccc(O)c(O)c1)O[C@@H]1C[C@](O)(C(=O)O)C[C@@H](OC(=O)/C=C/c2ccc(O)c(O)c2)[C@H]1O`, in test [1], the Activity result was “Dose-dependent effect”.
For the molecule `O=C(C=Cc1ccc(O)c(O)c1)O[C@@H]1C[C@](O)(C(=O)O)C[C@@H](O)[C@H]1O`, in test [1], the Activity entry is “Dose-dependent effect”.
For orientation: MIC means the least concentration at which growth counts as inhibited. Turning to `CN[C@@H]1[C@H](O[C@H]2[C@H](O[C@H]3[C@H](O)[C@@H](O)[C@H](N=C(N)N)[C@@H](O)[C@@H]3N=C(N)N)O[C@@H](C)[C@]2(O)C=O)O[C@@H](CO)[C@H](O)[C@H]1O` (stereo in doubt) [STREPTOMYCIN], the MIC with Bacillus subtilis [2], against Staphylococcus aureus [3] and against Escherichia coli [4] was 12.5 µg/mL (≈ 21.5 µM) throughout.
As for `O=C1C=CC(O)(CC(=O)O[C@H]2[C@H](OC(=O)/C=C/c3ccc(O)c(O)c3)C[C@](O)(C(=O)O)C[C@H]2OC(=O)/C=C/c2ccc(O)c(O)c2)C=C1`, the result in the test on Escherichia coli [5], with Staphylococcus aureus [6] and in the test with Bacillus subtilis [7] was inactive.
